This note sets out measurements from ChEMBL document CHEMBL1817541, “Synthesis and Evaluation of the α-D-/α-L-Rhamnosyl and Amicetosyl Digitoxigenin Oligomers as Anti-tumor Agents” (ACS Med Chem Lett, 2011).

Common to all, as to type: functional
The test system of experiment [1] is NCI-H460. Kind of experiment: Cytotoxicity against human NCI-H460 cell assessed as cell death after 12 hrs by Hoechst 33342/propidium iodide staining based fluorescence microscopy. As to conditions: NCI-H460, 12 h.
Experiment [2] relates to NCI-H460. In words: Cytotoxicity against human NCI-H460 cell assessed as cell death at 500 nM after 12 hrs by Hoechst 33342/propidium iodide staining based fluorescence microscopy.
The test system of experiment [3] is NCI-H460. In words: Cytotoxicity against human NCI-H460 cell assessed as cell death at 100 nM after 12 hrs by Hoechst 33342/propidium iodide staining based fluorescence microscopy.
Experiment [4] concerns NCI-H460. In words: Cytotoxicity against human NCI-H460 cell assessed as cell death at 50 nM after 12 hrs by Hoechst 33342/propidium iodide staining based fluorescence microscopy.
For experiment [5], the system named is NCI-H460. In words: Cytotoxicity against human NCI-H460 cells in serum free medium assessed as cell death at 10 uM after 12 hrs by Hoechst 33342/propidium iodide staining based fluorescence microscopy.
For experiment [6], the system named is NCI-H460. In words: Induction of apoptosis in human NCI-H460 cells in at 50 nM after 12 hrs by Hoechst 33342/propidium iodide staining based fluorescence microscopy.
For experiment [7], the system named is NCI-H460. In words: Cytotoxicity against human NCI-H460 cell assessed as cell death at 10 nM after 12 hrs by Hoechst 33342/propidium iodide staining based fluorescence microscopy.
Experiment [8] has as its system NCI-H460. Kind of experiment: Cytotoxicity against human NCI-H460 cell assessed as cell death at 1 uM after 12 hrs by Hoechst 33342/propidium iodide staining based fluorescence microscopy.
Experiment [9] concerns NCI-H460. Kind of experiment: Cytotoxicity against human NCI-H460 cell assessed as cell death at 100 uM after 12 hrs by Hoechst 33342/propidium iodide staining based fluorescence microscopy.

pIC50: −log10 of the molar value.

In general, pIC50 refers to −log10 of the IC50, conventionally taken in molar units. Take `C[C@H]1O[C@H](O[C@H]2CC[C@@]3(C)[C@H](CC[C@@H]4[C@@H]3CC[C@]3(C)[C@@H](C5=CC(=O)OC5)CC[C@]43O)C2)[C@@H](O)[C@@H](O)[C@@H]1O`: the pIC50 in the experiment on NCI-H460 [1] is 6.15. The Activity with NCI-H460 [2] is 35.05%; with NCI-H460 [3], 12.28%; in the experiment on NCI-H460 [4], 12.14%; with NCI-H460 [5], 95.72%; with NCI-H460 [6], 45.71%; with NCI-H460 [7], 7.85%. Also, the figures for the Activity with NCI-H460 [8] and in the experiment on NCI-H460 [9] were 71.67% and 100%, respectively.

Take `C[C@@H]1O[C@@H](O[C@@H]2CC[C@H](O[C@@H]3CC[C@H](O[C@H]4CC[C@@]5(C)[C@H](CC[C@@H]6[C@@H]5CC[C@]5(C)[C@@H](C7=CC(=O)OC7)CC[C@]65O)C4)O[C@H]3C)O[C@H]2C)CC[C@H]1O`: the pIC50 in the experiment with NCI-H460 [1] was 5.40. The Activity in the experiment with NCI-H460 [2] worked out at 16.46%; in the experiment with NCI-H460 [3], 11.8%; in the experiment on NCI-H460 [4], 10.85%; in the experiment with NCI-H460 [5], 70.17%; with NCI-H460 [7], 8.34%; with NCI-H460 [8], 25.85%. Moreover, the Activity in the experiment on NCI-H460 [9] is recorded as 91.74%.

On to `C[C@H]1O[C@H](O[C@H]2[C@H](O)[C@H](O)[C@@H](O[C@H]3CC[C@@]4(C)[C@H](CC[C@@H]5[C@@H]4CC[C@]4(C)[C@@H](C6=CC(=O)OC6)CC[C@]54O)C3)O[C@@H]2C)[C@@H](O)[C@@H](O)[C@@H]1O`, for which, in the experiment on NCI-H460 [1], the pIC50 is 5.37. The Activity in the experiment with NCI-H460 [2] was 11.06%; in the experiment with NCI-H460 [3], 9.87%; in the experiment on NCI-H460 [4], 7.37%; with NCI-H460 [5] it was 58.09%; in the experiment with NCI-H460 [7] it was 6.36%; in the experiment with NCI-H460 [8], 14.52%. Further, the Activity in the experiment on NCI-H460 [9] turned out to be 73.4%.

Turning to `C[C@@H]1O[C@@H](O[C@@H]2[C@@H](O)[C@@H](O)[C@H](O[C@H]3CC[C@@]4(C)[C@H](CC[C@@H]5[C@@H]4CC[C@]4(C)[C@@H](C6=CC(=O)OC6)CC[C@]54O)C3)O[C@H]2C)[C@H](O)[C@H](O)[C@H]1O`, the pIC50 in the experiment on NCI-H460 [1] was 6.44. Besides, the Activity in the experiment on NCI-H460 [2] was 62.95%; with NCI-H460 [3], 20.51%; in the experiment on NCI-H460 [4], 16.8%; in the experiment with NCI-H460 [5] it was 100%; in the experiment on NCI-H460 [7] it was 12.68%; with NCI-H460 [8], 92.06%. Moreover, in the experiment on NCI-H460 [9], the Activity was 100%.

In the case of `C[C@@H]1O[C@@H](O[C@@H]2[C@@H](O)[C@@H](O)[C@H](O[C@@H]3[C@@H](O)[C@@H](O)[C@H](O[C@H]4CC[C@@]5(C)[C@H](CC[C@@H]6[C@@H]5CC[C@]5(C)[C@@H](C7=CC(=O)OC7)CC[C@]65O)C4)O[C@H]3C)O[C@H]2C)[C@H](O)[C@H](O)[C@H]1O`, the pIC50 in the experiment with NCI-H460 [1] was 5.87. Besides, the Activity in the experiment with NCI-H460 [2] was determined as 38.97%; in the experiment with NCI-H460 [3] it was 15.21%; with NCI-H460 [4], 12.17%; in the experiment on NCI-H460 [5], 94.07%; in the experiment on NCI-H460 [7] it was 10.71%; in the experiment with NCI-H460 [8], 43.65%. Also, the Activity in the experiment on NCI-H460 [9] is 100%.

In the case of `C[C@H]1O[C@H](O[C@H]2CC[C@@]3(C)[C@H](CC[C@@H]4[C@@H]3CC[C@]3(C)[C@@H](C5=CC(=O)OC5)CC[C@]43O)C2)CC[C@@H]1O[C@@H]1CC[C@H](O[C@@H]2CC[C@H](O)[C@@H](C)O2)[C@@H](C)O1`, in the experiment on NCI-H460 [1], the pIC50 was 4.48. For the same compound, the Activity in the experiment on NCI-H460 [2] was found to be 9.11%; in the experiment on NCI-H460 [3], 8.57%; with NCI-H460 [4], 7.85%; in the experiment with NCI-H460 [5] it was 26.48%; with NCI-H460 [7] it was 6.55%; in the experiment on NCI-H460 [8], 9.84%. Moreover, the Activity in the experiment with NCI-H460 [9] was 53.1%.

On to `C[C@@H]1O[C@@H](O[C@H]2CC[C@@]3(C)[C@H](CC[C@@H]4[C@@H]3CC[C@]3(C)[C@@H](C5=CC(=O)OC5)CC[C@]43O)C2)[C@H](O)[C@H](O)[C@H]1O`, for which the Activity is recorded as 100% with NCI-H460 [2]; 96.96% in the experiment on NCI-H460 [3]; 60.56% in the experiment on NCI-H460 [4]; 100% in the experiment on NCI-H460 [5]; 48.64% with NCI-H460 [6]; 17.04% in the experiment with NCI-H460 [7]. The Activity in the experiment on NCI-H460 [8] and with NCI-H460 [9] was 100% each time.

Turning to `C[C@H]1O[C@H](O[C@H]2CC[C@@]3(C)[C@H](CC[C@@H]4[C@@H]3CC[C@]3(C)[C@@H](C5=CC(=O)OC5)CC[C@]43O)C2)CC[C@@H]1O[C@@H]1CC[C@H](O)[C@@H](C)O1`, the negative logarithm of the IC50 (pIC50) with NCI-H460 [1] was 5.22. Also, the Activity with NCI-H460 [2] was determined as 12.91%; in the experiment on NCI-H460 [3], 11.49%; in the experiment on NCI-H460 [4] it was 10.01%; in the experiment on NCI-H460 [5] it was 50.25%; in the experiment on NCI-H460 [7] it was 9.06%; in the experiment with NCI-H460 [8], 15.99%. In addition, in the experiment on NCI-H460 [9], the Activity was found to be 71.1%.

On to `C[C@@H]1O[C@@H](O[C@@H]2CC[C@H](O[C@H]3CC[C@@]4(C)[C@H](CC[C@@H]5[C@@H]4CC[C@]4(C)[C@@H](C6=CC(=O)OC6)CC[C@]54O)C3)O[C@H]2C)CC[C@H]1O`, for which the pIC50 in the experiment with NCI-H460 [1] was 6.29. Also, the Activity in the experiment on NCI-H460 [2] is 53.76%; in the experiment on NCI-H460 [3], 18.03%; with NCI-H460 [4] it was 14.89%; with NCI-H460 [5] it was 100%; with NCI-H460 [7], 8.73%; in the experiment on NCI-H460 [8], 94.59%. For the same compound, in the experiment on NCI-H460 [9], the Activity amounted to 100%.

Consider `C[C@H]1O[C@H](O[C@H]2[C@H](O)[C@H](O)[C@@H](O[C@H]3[C@H](O)[C@H](O)[C@@H](O[C@H]4CC[C@@]5(C)[C@H](CC[C@@H]6[C@@H]5CC[C@]5(C)[C@@H](C7=CC(=O)OC7)CC[C@]65O)C4)O[C@@H]3C)O[C@@H]2C)[C@@H](O)[C@@H](O)[C@@H]1O`, for which, in the experiment on NCI-H460 [1], the pIC50 was 4.74. Further, the Activity with NCI-H460 [2] is listed as 7.99%; in the experiment with NCI-H460 [3], 7.17%; in the experiment on NCI-H460 [4], 6.85%; with NCI-H460 [5], 28.42%; in the experiment with NCI-H460 [7] it was 6.44%; with NCI-H460 [8] it was 8.37%. In addition, the Activity in the experiment with NCI-H460 [9] is recorded as 59.91%.
